Type in all cases: cell-based
In assay [1] the target is T1, human TLR7 (Homo sapiens, UniProt Q9NYK1).
T1 construct: host or cells: HEK-Blue cells (HEK293-derived reporter line)
T1 sequence (Q9NYK1 27-1049): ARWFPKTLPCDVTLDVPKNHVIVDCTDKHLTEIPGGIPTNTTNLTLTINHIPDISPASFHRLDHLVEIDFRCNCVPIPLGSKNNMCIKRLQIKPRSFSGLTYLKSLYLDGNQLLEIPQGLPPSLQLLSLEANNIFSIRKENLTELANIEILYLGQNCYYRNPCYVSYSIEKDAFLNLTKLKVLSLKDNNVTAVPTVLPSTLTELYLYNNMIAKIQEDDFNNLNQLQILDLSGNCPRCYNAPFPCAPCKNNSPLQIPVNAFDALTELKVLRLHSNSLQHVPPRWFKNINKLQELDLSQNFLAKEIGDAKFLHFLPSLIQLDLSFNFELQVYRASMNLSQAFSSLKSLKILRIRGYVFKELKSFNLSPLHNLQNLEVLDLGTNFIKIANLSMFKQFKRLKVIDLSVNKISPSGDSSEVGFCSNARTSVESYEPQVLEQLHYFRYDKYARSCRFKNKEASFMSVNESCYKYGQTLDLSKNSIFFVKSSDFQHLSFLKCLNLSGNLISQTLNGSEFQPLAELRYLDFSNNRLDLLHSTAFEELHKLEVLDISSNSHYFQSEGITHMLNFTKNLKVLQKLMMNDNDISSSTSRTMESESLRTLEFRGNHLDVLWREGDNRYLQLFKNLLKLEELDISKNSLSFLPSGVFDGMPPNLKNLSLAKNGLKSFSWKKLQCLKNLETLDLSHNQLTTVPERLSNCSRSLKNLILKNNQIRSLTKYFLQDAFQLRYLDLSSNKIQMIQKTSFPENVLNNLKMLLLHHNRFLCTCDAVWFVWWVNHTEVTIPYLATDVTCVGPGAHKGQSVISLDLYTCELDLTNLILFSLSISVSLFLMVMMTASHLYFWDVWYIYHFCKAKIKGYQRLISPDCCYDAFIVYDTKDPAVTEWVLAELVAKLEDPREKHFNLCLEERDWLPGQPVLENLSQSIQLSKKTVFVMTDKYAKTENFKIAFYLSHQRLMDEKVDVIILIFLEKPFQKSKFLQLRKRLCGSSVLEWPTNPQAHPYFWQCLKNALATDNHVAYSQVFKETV
The assay is described as follows: TLR7/8/9 Inhibition Reporter Assays (TLR7). As to conditions: HEK-Blue cells overexpressing human TLR7, SEAP reporter, stimulated with TLR7 ligand gardiquimod. How it is done:
(§1) HEK-Blue™-cells (Invivogen) overexpressing human TLR7, TLR8 or TLR9 receptors were used for screening inhibitors of these receptors using an inducible SEAP (secreted embryonic alkaline phosphatase) reporter gene under the control of the IFN-β minimal promoter fused to five NF-κB and AP-1-binding sites. Cells are seeded into Greiner 384 well plates (15000 cells per well) that are predispensed (by ECHO) with testing compounds in DMSO to yield a final dose response concentration range of 0.85 nM-[…]. After a 60 minute compound pre-treatment in 37° C. incubator, the cells are then stimulated with a TLR7 ligand (gardiquimod at a final concentration of […]), TLR8 ligand (R848 at a final concentration of […]) or TLR9 ligand (ODN2006 at a final concentration of 200 nM) to activate NF-κB and AP-1 which induce the production of SEAP. After a 22 hour incubation at 37° C., 5% CO2, SEAP levels are determined with the addition of HEK-Blue™ Detection reagent (Invivogen), a cell culture medium that allows for detection of SEAP, according to manufacturer's specifications. The percent inhibition is determined as the % reduction in the HEK-Blue signal present in wells treated with agonist plus DMSO alone compared to wells treated with a known inhibitor.
In general terms: In a reporter assay the amount or activity of a reporter protein is the signal.

The target in assay [2] is T2, human TLR8 (Homo sapiens, UniProt Q9NR97).
T2 construct: host or cells: HEK-Blue cells (HEK293-derived reporter line)
T2 sequence (Q9NR97 27-1041): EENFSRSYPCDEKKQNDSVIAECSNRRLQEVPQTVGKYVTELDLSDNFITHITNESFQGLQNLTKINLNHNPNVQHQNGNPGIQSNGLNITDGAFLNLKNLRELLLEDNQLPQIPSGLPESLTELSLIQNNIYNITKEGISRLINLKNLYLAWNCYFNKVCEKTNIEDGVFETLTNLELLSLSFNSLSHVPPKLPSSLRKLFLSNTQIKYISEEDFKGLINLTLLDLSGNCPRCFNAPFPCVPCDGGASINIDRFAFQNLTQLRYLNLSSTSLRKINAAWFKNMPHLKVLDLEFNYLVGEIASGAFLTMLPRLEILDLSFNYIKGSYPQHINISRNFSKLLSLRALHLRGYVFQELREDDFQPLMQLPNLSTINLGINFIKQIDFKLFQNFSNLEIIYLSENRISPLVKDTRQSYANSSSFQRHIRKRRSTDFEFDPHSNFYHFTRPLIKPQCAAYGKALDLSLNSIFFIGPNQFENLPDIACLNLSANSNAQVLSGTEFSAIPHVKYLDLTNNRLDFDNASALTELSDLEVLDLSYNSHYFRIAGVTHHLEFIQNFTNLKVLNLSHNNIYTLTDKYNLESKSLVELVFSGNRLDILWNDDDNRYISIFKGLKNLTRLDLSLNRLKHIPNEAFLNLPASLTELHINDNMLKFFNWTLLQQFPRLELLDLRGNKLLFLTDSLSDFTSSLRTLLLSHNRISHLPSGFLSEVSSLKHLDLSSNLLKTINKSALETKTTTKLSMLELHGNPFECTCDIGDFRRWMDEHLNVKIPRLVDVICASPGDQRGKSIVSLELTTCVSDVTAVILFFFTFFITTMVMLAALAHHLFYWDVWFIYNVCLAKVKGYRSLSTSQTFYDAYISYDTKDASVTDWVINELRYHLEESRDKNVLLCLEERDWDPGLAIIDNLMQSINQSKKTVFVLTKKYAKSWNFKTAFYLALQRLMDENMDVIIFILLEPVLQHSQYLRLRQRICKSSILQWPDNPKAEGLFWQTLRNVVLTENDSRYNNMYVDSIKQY
Nature of the assay: TLR7/8/9 Inhibition Reporter Assays (TLR8). The following applies: HEK-Blue cells overexpressing human TLR8, SEAP reporter, stimulated with TLR8 ligand R848. The method, then:
as §1

Assay [3] addresses T3, human TLR9 (Homo sapiens, UniProt Q9NR96).
T3 construct: host or cells: HEK-Blue cells (HEK293-derived reporter line)
T3 sequence (Q9NR96 26-1032): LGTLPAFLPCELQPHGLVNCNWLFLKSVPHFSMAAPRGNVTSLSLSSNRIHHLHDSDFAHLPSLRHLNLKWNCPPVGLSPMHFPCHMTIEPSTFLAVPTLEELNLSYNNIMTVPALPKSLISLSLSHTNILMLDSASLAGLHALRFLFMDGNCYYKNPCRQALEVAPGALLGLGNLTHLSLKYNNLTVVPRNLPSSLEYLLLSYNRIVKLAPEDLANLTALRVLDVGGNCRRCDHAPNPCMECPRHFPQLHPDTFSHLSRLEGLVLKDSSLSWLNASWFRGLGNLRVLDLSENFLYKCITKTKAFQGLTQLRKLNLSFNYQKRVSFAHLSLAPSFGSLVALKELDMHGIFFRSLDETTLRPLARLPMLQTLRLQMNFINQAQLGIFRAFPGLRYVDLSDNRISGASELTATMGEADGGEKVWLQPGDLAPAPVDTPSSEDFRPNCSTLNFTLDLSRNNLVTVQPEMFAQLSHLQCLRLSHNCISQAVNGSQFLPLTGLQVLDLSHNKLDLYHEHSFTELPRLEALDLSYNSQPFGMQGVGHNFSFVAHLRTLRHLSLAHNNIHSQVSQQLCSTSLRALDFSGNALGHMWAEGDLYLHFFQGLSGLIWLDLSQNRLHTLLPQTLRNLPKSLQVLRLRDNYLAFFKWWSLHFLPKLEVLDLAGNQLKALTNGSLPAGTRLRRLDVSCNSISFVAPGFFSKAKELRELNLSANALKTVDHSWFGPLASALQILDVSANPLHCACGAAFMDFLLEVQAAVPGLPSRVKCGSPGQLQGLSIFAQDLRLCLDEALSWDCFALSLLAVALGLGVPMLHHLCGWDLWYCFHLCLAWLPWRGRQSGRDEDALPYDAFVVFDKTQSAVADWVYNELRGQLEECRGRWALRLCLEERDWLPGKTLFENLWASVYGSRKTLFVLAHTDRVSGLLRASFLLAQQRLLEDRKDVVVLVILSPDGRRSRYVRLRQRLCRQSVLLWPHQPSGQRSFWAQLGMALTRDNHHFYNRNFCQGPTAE
The assay is described as follows: TLR7/8/9 Inhibition Reporter Assays (TLR9). The following applies: HEK-Blue cells overexpressing human TLR9, SEAP reporter, stimulated with TLR9 ligand ODN2006. How it is done: as §1

Some results are limits rather than exact numbers.

Broadly, the IC50 is the concentration needed to halve the response being measured. A low value points to inhibition by little substance. Turning to `Cc1nc(-c2ccc(CN3CCC(N4CCCC4)CC3)cc2)cc2c1nc(-c1ccc(S(C)(=O)=O)cc1)n2C` [Example 46, 1,4-dimethyl-2-(4-(methylsulfonyl)phenyl)-6-(4-((4-(pyrrolidin-1-yl)piperidin-1-yl)methyl)phenyl)-1H-imidazo[4,5-c]pyridine], the IC50 in assay [1] worked out at 1000 nM; in assay [2] it was 5500 nM; in assay [3] it was 58 nM.
The like results for `Cn1c(-c2ccc(S(C)(=O)=O)cc2)nc2c(C(F)(F)F)nc(C3=CCN(C4CCN(CC(C)(C)O)CC4)CC3)cc21` [Example 37, 2-methyl-1-(4-(4-(1-methyl-2-(4-(methylsulfonyl)phenyl)-4-(trifluoromethyl)-1H-imidazo[4,5-c]pyridin-6-yl)-3,6-dihydropyridin-1(2H)-yl)piperidin-1-yl)propan-2-ol] were, in that order, 13000 nM, greater than 50000 nM and 1100 nM.
For `Cc1nc(-c2ccc(N3CCC4(CC3)CN(CC(C)(C)O)C4)cc2)cc2c1nc(-c1ccc(S(C)(=O)=O)cc1)n2C` [Example 91, 1-(7-(4-(1,4-dimethyl-2-(4-(methylsulfonyl)phenyl)-1H-imidazo[4,5-c]pyridin-6-yl)phenyl)-2,7-diazaspiro[3.5]nonan-2-yl)-2-methylpropan-2-ol], in that order: 5500 nM, 6800 nM and 170 nM.
As for `Cc1nc(-c2ccc(N3CCN(CC(C)C)CC3)cc2)cc2c1nc(-c1ccc(S(C)(=O)=O)cc1)n2C` [Example 7, 6-(4-(4-isobutylpiperazin-1-yl)phenyl)-1,4-dimethyl-2-(4-(methylsulfonyl)phenyl)-1H-imidazo[4,5-c]pyridine], the IC50 in assay [1] was 7000 nM; in assay [2], greater than 50000 nM; in assay [3], 240 nM.
As to `Cc1cc(-c2nc3c(C)nc(-c4ccc(N5CCN(CC(C)C)CC5)cc4)cc3n2C)cc(C)n1` [Example 14, 2-(2,6-dimethylpyridin-4-yl)-6-(4-(4-isobutylpiperazin-1-yl)phenyl)-1,4-dimethyl-1H-imidazo[4,5-c]pyridine], the half-inhibitory concentration (IC50) in assay [1] stood at 4500 nM; in assay [2], 4600 nM; in assay [3], 380 nM.
On to `Cc1nc(-c2ccc(CN3CCC(N(C)C4CC4)CC3)cc2)cc2c1nc(-c1ccc(S(C)(=O)=O)cc1)n2C` [Example 47, N-cyclopropyl-1-(4-(1,4-dimethyl-2-(4-(methylsulfonyl)phenyl)-1H-imidazo[4,5-c]pyridin-6-yl)benzyl)-N-methylpiperidin-4-amine], for which the IC50 in assay [1] stood at 1700 nM; in assay [2], 5500 nM; in assay [3], 230 nM.
For `COc1ccc(-c2nc3c(C)nc(-c4ccc(N5CCC6(CC5)CN(CC(C)(C)O)C6)cc4)cc3n2C)cc1OC` [Example 92, 1-(7-(4-(2-(3,4-dimethoxyphenyl)-1,4-dimethyl-1H-imidazo[4,5-c]pyridin-6-yl)phenyl)-2,7-diazaspiro[3.5]nonan-2-yl)-2-methylpropan-2-ol], in that order: 1500 nM, greater than 50000 nM and 1000 nM.
For `Cc1nc(-c2ccc(N3CCN(CC4CC4)CC3)cc2)cc2c1nc(-c1ccc(S(C)(=O)=O)cc1)n2C` [Example 20, 6-(4-(4-(cyclopropylmethyl)piperazin-1-yl)phenyl)-1,4-dimethyl-2-(4-(methylsulfonyl)phenyl)-1H-imidazo[4,5-c]pyridine], the results for the IC50 in assay [1], in assay [2] and in assay [3] were 2900 nM, 12000 nM and 360 nM, respectively.
Turning to `Cc1nc(-c2ccc(CCN3CCC(N4CCOCC4)CC3)cc2)cc2c1nc(-c1ccc(S(C)(=O)=O)cc1)n2C` [Example 53, 4-(1-(4-(1,4-dimethyl-2-(4-(methylsulfonyl)phenyl)-1H-imidazo[4,5-c]pyridin-6-yl)phenethyl)piperidin-4-yl) morpholine], the IC50 in assay [1] was found to be 3100 nM; in assay [2] it was 7600 nM; in assay [3] it was 74 nM.

Source of the values: patent publication US20250163054A1, “SUBSTITUTED BICYCLIC HETEROARYL COMPOUNDS USEFUL AS INHIBITORS OF TLR9” (Bristol-Myers Squibb Company, priority 2022, published 2025).
